The source of these data is US20090270495A1, “Inhibitors of Phosphodiesterase Types 1 To 5 Based on Dioclein, Floranol, and Analogs Thereof” (priority 2005, published 2009).

Structures are written as SMILES. Values joined by “and” are separate entries in the source; they are usually repeats but may differ in a detail not shown here. Equal entries are not always repeated. “Also recorded” adds a separate entry of the source. Where two headings read alike, the source gives them in different places.

In data set [1] the target is PDE5 (Homo sapiens, UniProt O76074). Particulars: cited from earlier work.
The test system of another data set is human saphenous vein. Put plainly: Vasodilating effect on human saphenous vein pre-contracted with phenylephrine. As to conditions: for IC50: phenylephrine 3×10^−6M. On the procedure: FIG. 2 represent the vasodilating effect of dioclein in the human saphenous vein, pre-contracted with phenylephrine (3×10^−6M) in the presence or absence of functional endothelium. The relaxation data represent the percentage of reduction of the contraction by phenylephrine in response to dioclein and have been expressed on average±SEM. *P<0.05 (two-way ANOVA with post-test comparison BONFERRONI. The vessels of 8 patients with and 8 without functional endothelium were analyzed.
The data represent the percentage of reduction of the contraction by phenylephrine in response to dioclein and have been expressed average±SEM. *P<0.05. ***P<0.001 (two-way ANOVA with post-test comparison BONFERRONI). One has analyzed 8 vessels of the control group, 5 vessels of the group incubated with H-89.
FIG. 4 illustrates the effect of Rp-8-pCPT cGMPS (10 μM) on the relaxation induced by dioclein on the human saphenous vein without functional endothelium, pre-contracted with phenylephrine (3×10^−6M). The data represent the percentage of reduction of the contraction with phenylephrine in response to dioclein and have been expressed in average±SEM. ***P<0.001 (two-way ANOVA with post-test comparison of BONFERRONI). One has analyzed 8 vessels of the control group and 5 vessels of the group incubated with Rp-8-pCPT cGMPS.
The data represent the percentage of reduction of the contraction with phenylephrine in response to dioclein and have been expressed in average±SEM. One has analyzed 8 vessels of the dioclein group, 7 vessels of the 8-MM-IBMX group and 9 vessels of the vinpocetine group.
FIG. 2 illustrates the effect of the flavonoids of the present invention on the human saphenous vein. […] FIG. 3 illustrates the effect of dioclein on the human saphenous vein without functional endothelium, in the absence and in the presence of an inhibitor selective of protein Kinase A, which is the intracellular receptor of AMPc.

Data set [2] relates to PDE1. As to conditions: cited from earlier work.
Data set [3] concerns arterial pressure of mice. Nature of the data set: Hypotensor effect on arterial pressure of mice. It counts as in vivo. Particulars: dissolved with DMSO. On the procedure:
FIG. 7 is a representative example of the effect of dioclein (2.5 mg/kg) and of the inclusion product of dioclein in cyclodextrin (inclusion: 2.5 mg/kg), applied by intraperitoneal route, on the arterial pressure of mice. In the highlight we can see the average±SEM of the maximum effect achieved on 6 different mice. In these experiments dioclein and the inclusion product of dioclein in the cyclodextrin were dissolved with the aid of DMSO.
FIG. 8 is a representative example of the effect of dioclein (10 mg/kg) and of the inclusion product of dioclein in cyclodextrin (inclusion: 10 mg/kg), applied by oral route, on the arterial pressure of mice. In the highlight one can see the average±SEM of maximum effect achieve in 3 different mice. In this experiments dioclein and the inclusion product of dioclein in cyclodextrin were dissolved with the aid of DMSO.
FIG. 9 is a representative example of the effect of the inclusion product of dioclein in cyclodextrin (inclusion; 10 mg/kg), solubilized in water, applied by oral route, on the arterial pressure of mice.
FIG. 7 illustrates the effect of dioclein and of dioclein included in cyclodextrin, dissolved with the aid of DMSO on the arterial pressure of mice. […] FIG. 8 illustrates the effect of dioclein and of dioclein included in cyclodextrin dissolved with the aid of DMSO on the arterial pressure of mice when applied by oral route (gavage). […]

Data set [4] has as its target T1, PDE5 (Bos taurus, UniProt Q28156).
T1 construct: isolated from the smooth muscle of ox aorta; from tissue; host or cells: smooth muscle of ox aorta
Nature of the data set: PDE5 inhibition, enzyme isolated from smooth muscle of ox aorta. It counts as biochemical.

The subject of data set [5] is PDE1. Nature of the data set: PDE1 inhibition, enzyme isolated from smooth muscle of ox aorta. It counts as biochemical. As to conditions: PDE1 versus PDE2-PDE5.
Data set [6] concerns T2, PDE1.
T2 construct: IC50 PDE1 − calmodulin; other: without calmodulin; Ki PDE1 − calmodulin; other: with calmodulin; Ki PDE1 + calmodulin; other: versus literature value of 8-MM-IBMX; times more pot
The data set is described as above. The class given is biochemical.

Another data set deals with PDE4. Put plainly: PDE4 inhibition, enzyme isolated from smooth muscle of ox aorta. The class given is biochemical.
The next data set concerns the target T3, PDE2 (Homo sapiens, UniProt O00408).
T3 construct: on the PDE2 isolated from human platelets; from tissue; host or cells: human platelets
Put plainly: PDE2 inhibition, enzyme isolated from human platelets. It counts as biochemical.

A further data set in a line: Solubility. It counts as physicochemical.
The next data set addresses T4, PDE3 (Bos taurus, UniProt A0A3Q1M1E8).
T4 sequence (A0A3Q1M1E8 1-1126): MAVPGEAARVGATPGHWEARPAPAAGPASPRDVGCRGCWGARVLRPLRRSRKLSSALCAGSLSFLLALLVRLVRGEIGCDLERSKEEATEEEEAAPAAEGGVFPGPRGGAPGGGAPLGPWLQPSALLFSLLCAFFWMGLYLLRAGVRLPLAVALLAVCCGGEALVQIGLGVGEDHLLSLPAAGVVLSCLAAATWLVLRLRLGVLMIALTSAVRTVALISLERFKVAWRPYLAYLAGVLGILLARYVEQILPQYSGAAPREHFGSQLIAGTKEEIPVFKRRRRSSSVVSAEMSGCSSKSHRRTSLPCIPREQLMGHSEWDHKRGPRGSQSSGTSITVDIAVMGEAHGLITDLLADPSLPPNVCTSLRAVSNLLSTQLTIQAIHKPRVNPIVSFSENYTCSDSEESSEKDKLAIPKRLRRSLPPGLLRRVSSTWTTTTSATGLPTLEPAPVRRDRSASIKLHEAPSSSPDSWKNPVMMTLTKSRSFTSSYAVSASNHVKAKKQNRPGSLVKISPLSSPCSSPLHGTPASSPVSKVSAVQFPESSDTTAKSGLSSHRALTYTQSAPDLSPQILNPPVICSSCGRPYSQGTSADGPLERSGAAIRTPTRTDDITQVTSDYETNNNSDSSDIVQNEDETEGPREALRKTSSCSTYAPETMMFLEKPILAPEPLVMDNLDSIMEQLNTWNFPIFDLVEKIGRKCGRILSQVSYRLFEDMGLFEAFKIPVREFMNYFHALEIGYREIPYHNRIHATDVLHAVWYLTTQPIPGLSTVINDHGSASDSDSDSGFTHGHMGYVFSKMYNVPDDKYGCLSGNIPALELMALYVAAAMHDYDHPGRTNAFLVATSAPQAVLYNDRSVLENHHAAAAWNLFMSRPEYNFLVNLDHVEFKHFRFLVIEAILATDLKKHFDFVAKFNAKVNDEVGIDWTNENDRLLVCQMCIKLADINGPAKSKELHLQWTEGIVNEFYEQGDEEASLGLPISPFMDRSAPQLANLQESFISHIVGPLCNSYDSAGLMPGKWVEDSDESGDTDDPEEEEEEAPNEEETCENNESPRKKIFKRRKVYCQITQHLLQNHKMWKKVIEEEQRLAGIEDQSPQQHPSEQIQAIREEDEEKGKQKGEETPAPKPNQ
Put plainly: PDE3 inhibition, enzyme isolated from smooth muscle of ox aorta. The class given is biochemical.

Another data set has as its system PDE1 of bovine tissue. Particulars: cited from earlier work.
For a further data set, the target named is PDE7 (Homo sapiens, UniProt Q9NP56). Particulars: at the same concentrations (higher than 30 μM); cited from earlier work.
The target of data set [7] is potassium channels of the type sensitive to high-conductance calcium (Homo sapiens, UniProt Q12791). As to conditions: cited from earlier work.
Setting [8] is: without functional endothelium, read-out: Cl50 of vasodilating effect, absence of functional endothelium.
[9] abbreviates: without calmodulin, read-out: IC50 PDE1 − calmodulin.
Where [10] appears, read: activated, +GMPc, read-out: IC50 Activated PDE2 (+GMPc).
[11] abbreviates: basal, read-out: IC50 Basal PDE2.

T3 sequence (O00408 whole entry): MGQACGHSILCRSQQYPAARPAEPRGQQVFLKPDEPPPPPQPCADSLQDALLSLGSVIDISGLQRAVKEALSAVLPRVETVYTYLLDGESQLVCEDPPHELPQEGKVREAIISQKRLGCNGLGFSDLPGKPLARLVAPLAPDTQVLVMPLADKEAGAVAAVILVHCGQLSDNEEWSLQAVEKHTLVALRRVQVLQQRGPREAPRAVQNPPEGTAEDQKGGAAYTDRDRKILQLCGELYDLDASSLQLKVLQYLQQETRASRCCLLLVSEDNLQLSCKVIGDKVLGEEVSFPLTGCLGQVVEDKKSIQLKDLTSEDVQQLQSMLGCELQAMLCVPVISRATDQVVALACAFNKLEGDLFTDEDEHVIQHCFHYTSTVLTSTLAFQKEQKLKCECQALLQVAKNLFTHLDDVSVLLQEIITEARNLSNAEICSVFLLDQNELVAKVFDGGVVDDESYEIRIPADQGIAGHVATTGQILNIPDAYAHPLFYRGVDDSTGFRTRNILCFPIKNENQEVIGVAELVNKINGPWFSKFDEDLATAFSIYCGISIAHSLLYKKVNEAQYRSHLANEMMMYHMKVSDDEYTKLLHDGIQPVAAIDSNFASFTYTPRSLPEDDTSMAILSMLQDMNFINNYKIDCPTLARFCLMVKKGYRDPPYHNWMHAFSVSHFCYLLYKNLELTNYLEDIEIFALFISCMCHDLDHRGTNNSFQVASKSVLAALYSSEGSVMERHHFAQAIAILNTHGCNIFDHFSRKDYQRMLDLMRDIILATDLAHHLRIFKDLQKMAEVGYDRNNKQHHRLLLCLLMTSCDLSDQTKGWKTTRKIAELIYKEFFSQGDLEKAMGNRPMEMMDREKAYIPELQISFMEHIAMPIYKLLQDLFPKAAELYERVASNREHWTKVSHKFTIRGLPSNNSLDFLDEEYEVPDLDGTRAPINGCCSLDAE
Sequence of PDE7 (Q9NP56 whole entry): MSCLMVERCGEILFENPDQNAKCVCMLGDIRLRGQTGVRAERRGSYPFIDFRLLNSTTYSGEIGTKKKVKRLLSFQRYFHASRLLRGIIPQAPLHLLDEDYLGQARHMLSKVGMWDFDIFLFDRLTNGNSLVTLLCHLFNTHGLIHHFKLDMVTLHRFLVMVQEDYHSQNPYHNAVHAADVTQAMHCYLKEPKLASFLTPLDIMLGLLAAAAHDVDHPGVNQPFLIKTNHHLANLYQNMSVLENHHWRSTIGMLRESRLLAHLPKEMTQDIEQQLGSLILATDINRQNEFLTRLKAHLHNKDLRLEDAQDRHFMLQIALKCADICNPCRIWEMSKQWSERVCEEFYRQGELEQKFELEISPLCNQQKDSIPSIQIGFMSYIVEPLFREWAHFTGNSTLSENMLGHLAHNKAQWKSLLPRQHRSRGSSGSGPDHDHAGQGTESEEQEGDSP
Sequence of potassium channels of the type sensitive to high-conductance calcium (Q12791 whole entry): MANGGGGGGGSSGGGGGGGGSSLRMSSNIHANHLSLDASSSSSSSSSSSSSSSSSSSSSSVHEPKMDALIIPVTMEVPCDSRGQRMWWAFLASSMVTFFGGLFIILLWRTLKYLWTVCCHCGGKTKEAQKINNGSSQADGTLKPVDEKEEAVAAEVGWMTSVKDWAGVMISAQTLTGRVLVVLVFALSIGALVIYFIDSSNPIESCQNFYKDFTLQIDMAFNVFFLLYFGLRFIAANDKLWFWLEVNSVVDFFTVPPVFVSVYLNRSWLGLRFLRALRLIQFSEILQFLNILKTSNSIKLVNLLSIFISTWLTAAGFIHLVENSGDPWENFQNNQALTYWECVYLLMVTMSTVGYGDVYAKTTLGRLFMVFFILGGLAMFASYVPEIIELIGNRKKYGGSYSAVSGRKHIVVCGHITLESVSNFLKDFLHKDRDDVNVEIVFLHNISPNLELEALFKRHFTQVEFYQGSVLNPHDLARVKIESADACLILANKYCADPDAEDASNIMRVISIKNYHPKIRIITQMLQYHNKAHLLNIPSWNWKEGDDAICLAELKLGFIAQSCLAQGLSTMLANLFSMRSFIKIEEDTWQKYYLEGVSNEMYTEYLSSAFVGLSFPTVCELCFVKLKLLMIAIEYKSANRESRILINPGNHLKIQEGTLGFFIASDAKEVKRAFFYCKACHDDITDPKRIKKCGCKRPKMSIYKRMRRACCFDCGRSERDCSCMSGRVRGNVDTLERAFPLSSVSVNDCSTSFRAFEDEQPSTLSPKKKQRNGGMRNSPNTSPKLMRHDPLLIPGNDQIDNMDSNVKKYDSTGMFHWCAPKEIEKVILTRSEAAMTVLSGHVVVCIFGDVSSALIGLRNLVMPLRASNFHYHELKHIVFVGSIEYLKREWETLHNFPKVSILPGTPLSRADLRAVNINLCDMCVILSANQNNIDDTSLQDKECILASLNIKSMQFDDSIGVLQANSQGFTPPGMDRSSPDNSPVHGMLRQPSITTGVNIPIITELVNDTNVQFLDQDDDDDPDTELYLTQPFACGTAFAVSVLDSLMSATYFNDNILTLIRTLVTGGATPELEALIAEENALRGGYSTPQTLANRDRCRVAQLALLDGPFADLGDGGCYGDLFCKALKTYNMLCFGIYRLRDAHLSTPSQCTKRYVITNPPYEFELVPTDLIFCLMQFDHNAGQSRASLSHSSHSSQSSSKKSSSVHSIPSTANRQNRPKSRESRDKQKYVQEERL

For `COCc1nc2c([nH]1)c(=O)n(C)c(=O)n2CC(C)C` [8-MM-IBMX, 8-methoxymethyl-IBMX], the IC50 on PDE5 [1] was 10 µM; with human saphenous vein (setting [8]) it was 30.9 ± 16 µM; in the data set on PDE1 [2], 8 µM.
On to `COc1cc2c(c(O)c1OC)C(=O)CC(c1cc(O)ccc1O)O2` (stereo not shown) [Dioclein, 5, 2′,5′-trihydroxy-6,7-dimethoxyflavanone], for which the “effect on arterial pressure, intraperitoneal route” value in data set [3] (2.5 mg/kg i.p.) is recorded as “reduced the arterial pressure of mice”. Besides, the “effect on arterial pressure, oral route (gavage), DMSO” value in data set [3] (10 mg/kg oral) was “not active via oral route”. The IC50 stood at 3 ± 0.2 µM in the data set on human saphenous vein (Homo sapiens, with functional endothelium, read-out: Cl50 of vasodilating effect, presence of functional endothelium); 11 ± 0.4 µM with human saphenous vein (Homo sapiens, without functional endothelium, read-out: Cl50 of vasodilating effect, absence of functional endothelium); 11.1 ± 2.7 µM in the data set on human saphenous vein (setting [8]); 23 ± 5.5 µM against PDE5 [4]; 1.44 ± 0.35 µM in the data set with PDE1 [6] (calmodulin state not stated in text, listed as dioclein, read-out: IC50 of inhibitory effect on PDE1 (running text)); 1.4 µM in the data set on PDE1 [6] (calmodulin state not stated in text, read-out: IC50 of inhibitory effect on PDE1 (running text)). Moreover, the IC50 with PDE1 [6] (setting [9]) is 2.47 ± 0.26 µM; in the data set on PDE4, 16.8 ± 1.42 µM; on PDE2 (setting [10]) it was 38.2 ± 8.92 µM; on PDE2 (setting [11]), 100 ± 0.5 µM. Further, the “vasodilating effect in the presence of H-89 (protein kinase A inhibitor)” value in the data set on human saphenous vein (without functional endothelium, H-89 1 μM) was “displaced to the right”. Besides, the “selectivity: PDE1 inhibited at concentrations times smaller than for PDE2, PDE3, PDE4 and PDE5” value in the data set on PDE1 [5] is 20 to 100 times and 20-100 times. Also, the “times more potent than 8-MM-IBMX (PDE1)” value in the data set with PDE1 [6] (versus literature value of 8-MM-IBMX) is 8 times. Besides, the “times more potent than vinpocetine (PDE1)” value with PDE1 [6] (versus literature value of vinpocetine) is “about 30 times”. The Ki (as a rule, a dissociation constant, usually derived from enzyme kinetics or from competition with a known ligand) in the data set on PDE1 [6] (with calmodulin) was 0.59 µM; with PDE1 [6] (without calmodulin), 0.62 µM. Moreover, the “solubility in DMSO and methanol” value in “Solubility” (DMSO, methanol) is “soluble in DMSO and methanol”. Also, the solubility in water result in “Solubility” (water) is recorded as “insolubility in water; also recorded: low solubility in water; also recorded: very low solubility in water”.
In the case of `COc1c(O)c(CC=C(C)C)c2c(c1O)C(=O)[C@H](O)[C@@H](c1ccccc1O)O2` [Floranol], the IC50 is 47.1 ± 5.25 µM at PDE3; 7.14 µM on PDE5 [4]; 3.06 ± 0.14 µM with PDE1 [6] (with calmodulin, read-out: IC50 PDE1 + calmodulin); 2.75 ± 0.2 µM in the data set with PDE1 [6] (setting [9]); 11 ± 2.31 µM with PDE4; 65.3 ± 6.87 µM at PDE2 (setting [10]). The IC50 on PDE2 (setting [11]) was determined as 26.8 ± 4.62 µM.
`CCOC(=O)C1=C[C@]2(CC)CCCN3CCc4c(n1c1ccccc41)[C@@H]32` [Vinpocetine] showed a maximum vasodilating effect in the data set on human saphenous vein (without functional endothelium) of 30%. For the same compound, in the data set with PDE1 of bovine tissue, the “concentrations showing inhibitory effect on PDE1” value is on record as “higher than 30 μM”. In addition, the PDE7 inhibition result at PDE7 is given as “inhibits PDE7”. Besides, the “direct activation of potassium channels” value in data set [7] is on record as “capable of directly activating potassium channels”.
